The text below walks through data of patent US20250076280A1, “RAPID SCREENING FOR ELEVATED BILE ACIDS USING WHOLE BLOOD” (The University of Toledo, priority 2022, published 2025).

For one data set, the system named is RBCs. Nature of the data set: Osmotic fragility test of RBCs from CCl4-treated mice. The data set is classed as in vivo, mouse. The settings on record: RBCs of L-TBA mice treated with CCl4 for 2 weeks vs vehicle; NaCl osmotic fragility. The procedure: (§1) C57BL/6J wild-type (WT) mice (Stock #000664) were procured from Jackson Laboratory and bred in-house in specific pathogen-free condition at the University of Toledo College of Medicine and Life Sciences. Mice were housed in cages (n=5 mice/cage) containing corn cob bedding (Bed-O-Cob; The Andersons Co.) and nestlets (Cat #CABFM00088; Ancare). The cages were housed at 23° C. under a 12/12-h light/dark phase cycle and fed a grain-based laboratory chow diet (LabDiet 5001) ad libitum. Mice were screened for serum total bile acids (TBA) prior to weaning. On day 22 for weaning, mice with low bile acids (L-TBA<40 µM) or high bile acids (H-TBA≥40 µM) were segregated into separate cages. To induce liver fibrosis in mice, carbon tetrachloride (Sigma-Aldrich, St. Louis, MO) ([…]) was administered intraperitoncally three times a week for 2 weeks with corn oil (Sigma-Aldrich) (50 μL) serving as vehicle control.
Blood was collected in EDTA-containing tubes and then 10 μl aliquots were placed into a round bottom 96-well plate. […] The degree of red blood cell (RBC) hemolysis was evaluated spectrophotometrically at 540 nm on a Biotek Eon microplate spectrophotometer and normalized to the optical density value of 0.0% buffered salt solution. […] All groups were incubated at 37° C. for 1 hr prior and measured for osmotic fragility.

A short description of data set [1]: Serum total bile acids in carbon tetrachloride-induced liver injury model. The data set is classed as in vivo, mouse. The settings on record: L-TBA mice, CCl4 i.p. three times a week for 2 weeks vs vehicle control. As for the experimental part: as §1
Total bile acids (TBA) in hemolysis-free sera were measured using a TBA assay kit (Enzyme Cycling Method; Diazyme Laboratories) according to the manufacturer's protocol.

In the next data set the test system is RBCs from L-TBA mice. The data set is described as follows: Osmotic fragility test after ex-vivo bile acid supplementation of RBCs. The class given is cell-based, mouse. The settings on record: 100 μM bile acid in PBS, 1 hr at 37° C. before NaCl osmotic fragility test; vs PBS alone.

Turning to `ClC(Cl)(Cl)Cl` [CCl4, carbon tetrachloride], the “resistance of RBCs to osmotic lysis” value in the data set with RBCs is “highly resistant to osmotic lysis”. In data set [1], the “increase in serum TBA levels” value amounted to 16 fold.

`C[C@H](CCC(=O)O)[C@H]1CC[C@H]2[C@@H]3[C@H](O)C[C@@H]4C[C@H](O)CC[C@]4(C)[C@H]3C[C@H](O)[C@]12C` [cholic acid]: the “resistance to osmotic lysis (hemolysis) of L-TBA RBCs” value in the data set with RBCs from L-TBA mice was “confer resistance”.

As to `C[C@H](CCC(=O)NCCS(=O)(=O)O)[C@H]1CC[C@H]2[C@@H]3[C@H](O)C[C@@H]4C[C@H](O)CC[C@]4(C)[C@H]3C[C@H](O)[C@]12C` [taurocholate, taurocholic acid], in the data set with RBCs from L-TBA mice, the “resistance to osmotic lysis (hemolysis) of L-TBA RBCs” value is listed as “failed to induce any resistance”.
